The text below walks through data of publication PMC7230911, “Meroterpenoids from the Brown Alga Cystoseira usneoides as Potential Anti-Inflammatory and Lung Anticancer Agents” (Marine Drugs, 2020).

The subject of one test is iNOS. In words: iNOS protein expression in LPS-stimulated THP-1 macrophages (western blot). It is filed as cell-based, human. The note with it: 8 μg/mL, LPS-stimulated THP-1 cells. As for the experimental part: COX-2 is the key enzyme regulating the production of prostaglandins, which are the central mediators of inflammation. On the other hand, iNOS enzyme represents an important molecular target closely involved in inflammatory responses. Thus, the effect of the AMTs 1–8 on LPS-induced COX-2 and iNOS protein expression was investigated by western blot analysis.
Figure 3 Effect of meroterpenoids 1–8 on LPS-induced COX-2 and iNOS protein expression in THP-1 macrophages. Cells were pretreated for 1 h with the compounds (1, 2, 3, 4, 7, and 8 at 8 μg/mL; 5 and 6 at 4 μg/mL) and then stimulated with LPS (1 μg/mL). Cytosolic lysates from 24 h-stimulated cells were separated on 10% SDS-PAGE. COX-2, iNOS, and β-actin were detected by western blot analysis. Data are expressed as means ± SE from three independent experiments. Statistical significance is indicated (+++ p < 0.001 and ++ p < 0.01, vs. Control, respectively; * p < 0.05, and ** p < 0.01 vs. Control + LPS).
Western blotting was used to measure the protein levels of COX-2 and iNOS [65]. […] Proteins concentration in cell lysates was determined by Bio-Rad Protein Assay, based on the method of Bradford (BioRad, Richmond CA, USA). […] The protein band densities were quantified using a Scientific Imaging Systems (Biophotonics ImageJ Analysis Software, National Institute of Mental Health, Bethesda, MD, USA).
For orientation: A western blot detects proteins with antibodies after separation by electrophoresis.

In another test the test system is colitis. Further details: method as in PMID 27527191. The note with it: down-regulating TNF-α, IL-1ß, IL-10, suppressing COX-2 and iNOS expression in mouse colon tissue; cited from earlier work.

In the case of `COc1c(C)cc(O)cc1C/C=C(\C)CC(=O)/C=C(\C)CCCC(C)(O)C(=O)/C=C/C(C)(C)O` (centres unmarked) [Compound 2, 11-hydroxy-1’-O-methylamentadione], in the test on iNOS, the “effect on iNOS (in words)” value is “significantly inhibited”. In the test with colitis, the “in vivo effect in colitis (in words)” value was “intestinal anti-inflammatory activity in colitis”.
